Data published in paper PMC4172587 (2014).

Tests used:
[1] = tested on: poly(dA-dT).poly(dA-dT) (DNA, polymer) AT; assay: UV melting, 260 nm; details: Na+ (citrate-phosphate 15 mM); 15 mM CP buffer pH 6.8; 20 µM polymer; harmalol at saturation (rmax); per base
[2] = tested on: poly(dA).poly(dT) (DNA, polymer) A/T; assay: UV melting, 260 nm; details: Na+ (citrate-phosphate 15 mM); 15 mM CP buffer pH 6.8; 20 µM polymer; harmalol at saturation (rmax); per base
[3] = tested on: poly(dG).poly(dC) (DNA, polymer) G/C; assay: UV melting, 260 nm; details: Na+ (citrate-phosphate 15 mM); 15 mM CP buffer pH 6.8; 20 µM polymer; harmalol at saturation (rmax); per base
[4] = tested on: poly(dG-dC).poly(dG-dC) (DNA, polymer) GC; assay: competition dialysis; details: Na+ (citrate-phosphate 15 mM); apparent; 15 mM CP buffer pH 6.8, 25 °C; 150 µM nucleotide phosphate, 1 µM harmalol; per base
[5] = tested on: poly(dA-dT).poly(dA-dT) (DNA, polymer) AT; assay: competition dialysis; details: Na+ (citrate-phosphate 15 mM); apparent; 15 mM CP buffer pH 6.8, 25 °C; 150 µM nucleotide phosphate, 1 µM harmalol; per base
[6] = tested on: poly(dA).poly(dT) (DNA, polymer) A/T; assay: competition dialysis; details: Na+ (citrate-phosphate 15 mM); apparent; 15 mM CP buffer pH 6.8, 25 °C; 150 µM nucleotide phosphate, 1 µM harmalol; per base
[7] = tested on: poly(dG).poly(dC) (DNA, polymer) G/C; assay: competition dialysis; details: Na+ (citrate-phosphate 15 mM); apparent; 15 mM CP buffer pH 6.8, 25 °C; 150 µM nucleotide phosphate, 1 µM harmalol; per base
[8] = tested on: poly(dG-dC).poly(dG-dC) (DNA, polymer) GC; assay: ITC, polynucleotide titrated into harmalol; details: 15 mM Na+; CP buffer pH 6.8, 25 °C; single-site fit; 20 µM harmalol; per base
[9] = tested on: poly(dA-dT).poly(dA-dT) (DNA, polymer) AT; assay: ITC, polynucleotide titrated into harmalol; details: 15 mM Na+; CP buffer pH 6.8, 25 °C; single-site fit; text b28 prints 0.40±0.02×10^5, Table 3 agrees with 0.44×10^6; per base
[10] = tested on: poly(dA).poly(dT) (DNA, polymer) A/T; assay: ITC, polynucleotide titrated into harmalol; details: 15 mM Na+; CP buffer pH 6.8, 25 °C; single-site fit; 20 µM harmalol; per base
[11] = tested on: poly(dG).poly(dC) (DNA, polymer) G/C; assay: ITC, polynucleotide titrated into harmalol; details: 15 mM Na+; CP buffer pH 6.8, 25 °C; single-site fit; 20 µM harmalol; per base
[12] = tested on: poly(dG-dC).poly(dG-dC) (DNA, polymer) GC; assay: absorbance titration, Scatchard, McGhee-von Hippel; details: Na+ (citrate-phosphate 15 mM); 15 mM CP buffer pH 6.8, 25 °C; non cooperative; DNA as nucleotide phosphate; per base
[13] = tested on: poly(dA-dT).poly(dA-dT) (DNA, polymer) AT; assay: absorbance titration, Scatchard, McGhee-von Hippel; details: Na+ (citrate-phosphate 15 mM); 15 mM CP buffer pH 6.8, 25 °C; non cooperative; DNA as nucleotide phosphate; per base
[14] = tested on: poly(dA).poly(dT) (DNA, polymer) A/T; assay: absorbance titration, Scatchard, McGhee-von Hippel; details: Na+ (citrate-phosphate 15 mM); 15 mM CP buffer pH 6.8, 25 °C; cooperative, intrinsic Ki 0.02±0.01 × 10^6, ω 14.0; DNA as nucleotide phosphate; per base
[15] = tested on: poly(dG).poly(dC) (DNA, polymer) G/C; assay: absorbance titration, Scatchard, McGhee-von Hippel; details: Na+ (citrate-phosphate 15 mM); 15 mM CP buffer pH 6.8, 25 °C; cooperative, intrinsic Ki 0.002±0.001 × 10^6, ω 84; DNA as nucleotide phosphate; per base
[16] = tested on: poly(dG-dC).poly(dG-dC) (DNA, polymer) GC; assay: fluorescence titration, Scatchard, McGhee-von Hippel; details: Na+ (citrate-phosphate 15 mM); 15 mM CP buffer pH 6.8, 25 °C; non cooperative; DNA as nucleotide phosphate; per base
[17] = tested on: poly(dA-dT).poly(dA-dT) (DNA, polymer) AT; assay: as above; details: Na+ (citrate-phosphate 15 mM); 15 mM CP buffer pH 6.8, 25 °C; non cooperative; DNA as nucleotide phosphate; per base
[18] = tested on: poly(dA).poly(dT) (DNA, polymer) A/T; assay: as above; details: Na+ (citrate-phosphate 15 mM); 15 mM CP buffer pH 6.8, 25 °C; cooperative, intrinsic constant, ω 20; DNA as nucleotide phosphate; per base
[19] = tested on: poly(dG).poly(dC) (DNA, polymer) G/C; assay: as above; details: Na+ (citrate-phosphate 15 mM); 15 mM CP buffer pH 6.8, 25 °C; cooperative, intrinsic constant, ω 75; DNA as nucleotide phosphate; per base

ΔTm [1]: 8 °C | ΔTm [2]: 6 °C | ΔTm [3]: 6 °C | Kapp [4]: 13.10±0.07 × 10^5 M^-1 | Kapp [5]: 4.56±0.04 × 10^5 M^-1 | Kapp [6]: 3.39±0.02 × 10^5 M^-1 | Kapp [7]: 2.19±0.01 × 10^5 M^-1 | Kb [8]: 3.86±0.07 × 10^6 M^-1 | Kb [9]: 0.44±0.02 × 10^6 M^-1 | Kb [10]: 0.30±0.02 × 10^6 M^-1 | Kb [11]: 0.22±0.03 × 10^6 M^-1 | Ki [12]: 4.20±0.05 × 10^6 M^-1 | Ki [13]: 0.43±0.03 × 10^6 M^-1 | Kiω [14]: 0.28±0.01 × 10^6 M^-1 | Kiω [15]: 0.18±0.01 × 10^6 M^-1 | Kf [16]: 4.60±0.07 × 10^6 M^-1 | Kf [17]: 0.45±0.04 × 10^6 M^-1 | Kf [18]: 0.015±0.001 × 10^6 M^-1 | Kf [19]: 0.002±0.001 × 10^6 M^-1
Compound: CC1=NCCc2c1[nH]c1cc(O)ccc21
